Reference: US12048317B2, “Astaxanthin-containing condiment and a preparation method therefor” (South China University of Technology, priority 2018, dated 2024)

Legend:
Type in all cases: physicochemical
[1] = Concentration of astaxanthin in the aqueous supernatant after glass-bead wall breaking of P. rhodozyma (spectrophotometer); details: water, 1 mm glass beads 500 g/L, 22° C., 150 rpm
Procedure: Adding P. rhodozyma to 20 mL of water to obtain yeast suspensions with concentrations of 20 g/L, 50 g/L and 100 g/L (dry weight), adding glass beads with a particle size of 1 mm to the yeast suspensions to make the content of the glass beads in the yeast suspensions 500 g/L, and then shaking to break walls in a shaker at 22° C. at a stirring speed of 150 rpm for 48 h. After breaking the wall, centrifuging at 10000 rpm for 10 min, and then collecting the precipitate and supernatant. Extracting astaxanthin in the supernatant with acetone and back-extracting it with petroleum ether, extracting the astaxanthin in the precipitate with acetone, and then using a spectrophotometer to detect the content of astaxanthin in the supernatant and precipitate. Using the amount of astaxanthin extracted by the acid-heat treatment method as a control, i.e., regarding the amount of astaxanthin extracted by the acid-heat treatment method by default as the total amount of astaxanthin for the calculation of the astaxanthin extraction rate.
Adding P. rhodozyma to 20 mL of water to obtain a yeast suspension with a concentration of 20 g/L (dry weight), adding glass beads with a particle size of 1 mm to the yeast suspension to make the content of the glass beads in the yeast suspension 500 g/L, and then shaking to break walls in a shaker at 22° C. at a stirring speed of 150 rpm for 6 h, 24 h and 48 h, respectively. After breaking the wall, centrifuging at 10000 rpm for 10 min, and then collecting the precipitate and supernatant. Extracting astaxanthin in the supernatant with acetone and back-extracting it with petroleum ether, extracting the astaxanthin in the precipitate with acetone, and then using a spectrophotometer to detect the content of astaxanthin in the supernatant and precipitate. Using the amount of astaxanthin extracted by the acid-heat treatment method as a control, i.e., regarding the amount of astaxanthin extracted by the acid-heat treatment method by default as the total amount of astaxanthin for the calculation of the astaxanthin extraction rate.

[2] = Drug-loading rate (amount of pigment contained in each gram of the microcapsule powder); details: Example 4 microcapsules
Procedure: (§1) This example selected the following optimal proportion: Supernatant (V, mL):gelatin (W, g):porous starch (W, g)=400:15:6 (core material (W, g):wall material (W, g)=3.95:21); the microencapsulation temperature was 40° C., and the microencapsulation time was 2 h. The encapsulation rate was calculated by detecting the total amount of pigment in the microcapsule powder and the amount of pigment on the surface (refer to Gomez-Estaca J. Food Hydrocolloids, 2016, 61:155-162). The amount of pigment on the surface was obtained by directly adding acetone for extraction. The total amount of pigment in the microcapsule powder was obtained as follows: dissolving the microcapsule powder in distilled water, shaking and then adding acetone thereto, mixing uniformly and then centrifuging, using petroleum ether to back-extract the pigment, and taking the upper layer of pigment-petroleum ether to measure the absorbance A with a spectrophotometer; if the pigment in the lower layer of acetone was not extracted completely, petroleum ether was added repeatedly until the organic solvent in the lower layer was colorless. Drug-loading rate refers to the amount of pigment contained in each gram of the microcapsule powder.

[3] = Encapsulation rate of the microcapsule powder (total pigment vs pigment on the surface); details: Example 4 microcapsules
Procedure: as §1

concentration of astaxanthin in the supernatant after the wall breaking ([1]; P. rhodozyma 20 g/L, 6 h): 93.72 µg/mL | concentration of astaxanthin in the supernatant after the wall breaking ([1]; P. rhodozyma 20 g/L, 24 h): 306.43 µg/mL | concentration of astaxanthin in the supernatant after the wall breaking ([1]; P. rhodozyma 20 g/L, 48 h): 459.57 µg/mL | concentration of astaxanthin in the supernatant after the wall breaking ([1]; P. rhodozyma 50 g/L, 48 h): 843.06 µg/mL | concentration of astaxanthin in the supernatant after the wall breaking ([1]; P. rhodozyma 100 g/L, 48 h): 1043.17 µg/mL | drug-loading rate of astaxanthin ([2]; concentration of yeast 20 g/L): 3.45 mg/g | drug-loading rate of astaxanthin ([2]; concentration of yeast 50 g/L): 6.79 mg/g | drug-loading rate of astaxanthin ([2]; concentration of yeast 100 g/L): 10.42 mg/g | encapsulation rate of astaxanthin ([3]; concentration of yeast 20 g/L): 87.8% | encapsulation rate of astaxanthin ([3]; concentration of yeast 50 g/L): 78.69% | encapsulation rate of astaxanthin ([3]; concentration of yeast 100 g/L): 75.62%
Structure (SMILES): CC1=C(/C=C/C(C)=C/C=C/C(C)=C/C=C/C=C(C)/C=C/C=C(C)/C=C/C2=C(C)C(=O)[C@@H](O)CC2(C)C)C(C)(C)C[C@H](O)C1=O [astaxanthin]
